Key:
HDAC1 = target: T1, HDAC1 (Homo sapiens, UniProt Q13547); test: HDAC inhibition assay (Caliper EZ reader, FAM-labeled peptide substrate); type: biochemical; settings: recombinant human HDAC, 60 min at room temperature, 2 μM substrate
T1 construct: purchased BPS Bioscience
Procedure: (§1) All recombinant human HDACs were purchased from BPS Bioscience. The substrates, Broad Substrate A and Broad Substrate B (see International App. No. WO 2013/067391), were synthesized in-house. All other reagents were purchased from Sigma-Aldrich. […] Reactions were terminated by the addition of 1.5 μM of the known pan-HDAC inhibitor LBH-589 (panobinostat). […] The reactions were performed in duplicate for each sample.

HDAC2 = target: T2, HDAC2 (Homo sapiens, UniProt Q92769); test: as above; type: biochemical; settings: recombinant human HDAC, 60 min at room temperature, 2 μM substrate
T2 construct: purchased BPS Bioscience
Procedure: as §1

HDAC3 = target: T3, HDAC3 (Homo sapiens, UniProt O15379); test: as above; type: biochemical; settings: recombinant human HDAC, 60 min at room temperature, 2 μM substrate
T3 construct: purchased BPS Bioscience
Procedure: as §1

HDAC4 = target: T4, HDAC4 (Homo sapiens, UniProt P56524); test: as above; type: biochemical; settings: recombinant human HDAC, 60 min at room temperature, 2 μM substrate
T4 construct: purchased BPS Bioscience
Procedure: as §1

HDAC5 = target: T5, HDAC5 (Homo sapiens, UniProt Q9UQL6); test: as above; type: biochemical; settings: recombinant human HDAC, 60 min at room temperature, 2 μM substrate
T5 construct: purchased BPS Bioscience
Procedure: as §1

HDAC6 = target: T6, HDAC6 (Homo sapiens, UniProt Q9UBN7); test: as above; type: biochemical; settings: recombinant human HDAC, 60 min at room temperature, 2 μM substrate
T6 construct: purchased BPS Bioscience
T6 sequence (Q9UBN7 1-1215): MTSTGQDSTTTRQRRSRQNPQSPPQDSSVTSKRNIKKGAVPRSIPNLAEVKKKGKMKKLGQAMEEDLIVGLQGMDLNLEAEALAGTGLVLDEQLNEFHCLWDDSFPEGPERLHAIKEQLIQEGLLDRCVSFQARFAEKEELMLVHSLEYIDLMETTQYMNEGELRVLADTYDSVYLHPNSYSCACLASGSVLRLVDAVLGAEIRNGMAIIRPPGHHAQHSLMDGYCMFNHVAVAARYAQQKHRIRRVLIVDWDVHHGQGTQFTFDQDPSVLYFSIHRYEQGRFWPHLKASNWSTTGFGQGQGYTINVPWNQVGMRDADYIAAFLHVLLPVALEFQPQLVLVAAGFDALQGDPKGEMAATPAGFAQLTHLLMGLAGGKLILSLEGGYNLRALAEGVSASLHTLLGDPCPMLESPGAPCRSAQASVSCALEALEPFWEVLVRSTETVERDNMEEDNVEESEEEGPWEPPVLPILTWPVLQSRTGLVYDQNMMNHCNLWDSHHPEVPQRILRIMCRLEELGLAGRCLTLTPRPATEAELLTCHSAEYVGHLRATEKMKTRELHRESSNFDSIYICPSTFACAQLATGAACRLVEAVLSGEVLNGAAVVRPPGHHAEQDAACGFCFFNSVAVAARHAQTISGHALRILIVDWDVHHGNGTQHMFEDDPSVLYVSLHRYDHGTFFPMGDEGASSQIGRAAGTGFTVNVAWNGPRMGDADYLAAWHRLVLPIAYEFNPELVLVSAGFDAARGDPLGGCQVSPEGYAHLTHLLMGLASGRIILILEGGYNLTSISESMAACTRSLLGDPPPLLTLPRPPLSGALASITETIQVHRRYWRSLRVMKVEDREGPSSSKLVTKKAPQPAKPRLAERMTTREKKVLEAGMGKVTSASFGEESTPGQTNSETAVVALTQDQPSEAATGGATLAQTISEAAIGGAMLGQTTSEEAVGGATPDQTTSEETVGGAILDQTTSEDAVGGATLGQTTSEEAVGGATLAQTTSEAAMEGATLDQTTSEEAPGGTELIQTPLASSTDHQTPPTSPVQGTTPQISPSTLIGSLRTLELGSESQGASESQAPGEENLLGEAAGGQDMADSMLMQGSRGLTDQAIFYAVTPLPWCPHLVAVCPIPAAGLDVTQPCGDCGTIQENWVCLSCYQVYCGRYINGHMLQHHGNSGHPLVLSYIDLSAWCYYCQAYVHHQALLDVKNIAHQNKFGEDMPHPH
Procedure: as §1

HDAC7 = target: T7, HDAC7 (Homo sapiens, UniProt Q8WUI4); test: as above; type: biochemical; settings: recombinant human HDAC, 60 min at room temperature, 2 μM substrate
T7 construct: purchased BPS Bioscience
T7 sequence (Q8WUI4 1-952): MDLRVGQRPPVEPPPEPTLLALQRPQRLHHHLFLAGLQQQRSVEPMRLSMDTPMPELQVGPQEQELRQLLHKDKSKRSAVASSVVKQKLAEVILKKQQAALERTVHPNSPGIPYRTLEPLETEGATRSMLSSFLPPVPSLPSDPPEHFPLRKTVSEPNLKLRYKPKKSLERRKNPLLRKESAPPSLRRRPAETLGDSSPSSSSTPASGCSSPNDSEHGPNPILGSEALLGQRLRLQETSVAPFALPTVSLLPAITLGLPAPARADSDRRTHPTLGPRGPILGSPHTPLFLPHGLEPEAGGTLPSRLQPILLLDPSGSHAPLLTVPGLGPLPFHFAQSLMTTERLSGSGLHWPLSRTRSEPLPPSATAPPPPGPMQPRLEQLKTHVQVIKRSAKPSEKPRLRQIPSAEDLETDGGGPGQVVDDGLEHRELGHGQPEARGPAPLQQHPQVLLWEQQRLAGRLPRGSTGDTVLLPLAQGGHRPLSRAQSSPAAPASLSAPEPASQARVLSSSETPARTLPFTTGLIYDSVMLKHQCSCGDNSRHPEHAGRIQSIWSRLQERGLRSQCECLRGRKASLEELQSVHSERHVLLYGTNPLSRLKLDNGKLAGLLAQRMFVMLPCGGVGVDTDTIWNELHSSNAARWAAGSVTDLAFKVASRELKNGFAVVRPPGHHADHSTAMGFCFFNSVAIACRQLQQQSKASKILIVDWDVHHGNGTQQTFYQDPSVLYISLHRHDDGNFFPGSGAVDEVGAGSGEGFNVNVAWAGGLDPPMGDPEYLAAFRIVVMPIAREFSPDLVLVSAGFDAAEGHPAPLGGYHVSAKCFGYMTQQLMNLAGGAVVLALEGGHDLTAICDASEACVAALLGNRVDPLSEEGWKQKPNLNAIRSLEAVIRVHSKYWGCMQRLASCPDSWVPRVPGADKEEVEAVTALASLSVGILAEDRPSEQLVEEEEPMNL
Procedure: as §1

HDAC8 = target: T8, HDAC8 (Homo sapiens, UniProt Q9BY41); test: as above; type: biochemical; settings: recombinant human HDAC, 60 min at room temperature, 2 μM substrate
T8 construct: purchased BPS Bioscience
T8 sequence (Q9BY41 1-377): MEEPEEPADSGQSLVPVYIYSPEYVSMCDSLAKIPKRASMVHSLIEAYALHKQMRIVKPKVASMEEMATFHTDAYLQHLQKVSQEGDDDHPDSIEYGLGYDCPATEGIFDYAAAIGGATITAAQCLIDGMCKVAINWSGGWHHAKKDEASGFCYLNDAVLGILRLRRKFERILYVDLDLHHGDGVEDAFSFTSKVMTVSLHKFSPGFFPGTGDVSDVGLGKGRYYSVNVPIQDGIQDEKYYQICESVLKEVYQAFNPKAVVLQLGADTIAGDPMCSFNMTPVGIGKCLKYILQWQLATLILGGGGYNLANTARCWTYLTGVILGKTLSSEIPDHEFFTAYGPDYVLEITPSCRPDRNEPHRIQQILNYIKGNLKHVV
Procedure: as §1

HDAC9 = target: T9, HDAC9 (Homo sapiens, UniProt Q9UKV0); test: as above; type: biochemical; settings: recombinant human HDAC, 60 min at room temperature, 2 μM substrate
T9 construct: purchased BPS Bioscience
Procedure: as §1

HDAC = test: In vivo PET imaging: blocking of whole brain uptake of the radiolabeled compound of Example 3; set-up: species or system rat; settings: self-blocking, 5 min pretreatment with 1.0 μg-2.0 mg/kg unlabeled compound; radiotracer of Example 3
Procedure: Male Sprague-Dawley rats were utilized in pairs, anesthetized with inhalational isoflurane (Forane) at 3% in a carrier of 1.5-2 L/min medical oxygen and maintained at 2% isoflurane for the duration of the scan. The rats were arranged head-to-head in a Triumph Trimodality PET/CT/SPECT scanner (Gamma Medica, Northridge, Calif.). Rats were injected standard references or vehicle via a lateral tail vein catheterization at the start of Positron Emission Tomography (PET) acquisition. Dynamic PET acquisition lasted for 60 min and was followed by computed tomography (CT) for anatomic co-registration. PET data were reconstructed using a 3D-MLEM method resulting in a full width at half-maximum resolution of 1 mm. Reconstructed images were exported from the scanner in DICOM format along with an anatomic CT for rodent studies. These files were imported to PMOD (PMOD Technologies, Ltd.) and manually coregistered using six degrees of freedom.
Volumes of interest (VOIs) were drawn manually as spheres in brain regions guided by high resolution CT structural images and summed PET data, with a radius no less than 1 mm to minimize partial volume effects. Time-activity curves (TACs) were exported in terms of decay corrected activity per unit volume at specified time points with gradually increasing intervals. The TACs were expressed as percent injected dose per unit volume for analysis.
Summed PET images following injection with the ^11C radiolabeled (E)-3-(4-((((1r,3R,5S)-adamantan-1-ylmethyl)(methyl)amino)methyl)phenyl)-N-hydroxyacrylamide (Example 3) at baseline or after 5 minutes pretreatment with 0.5 or 2.0 mg/kg unlabeled (E)-3-(4-((((1 r,3R,5 S)-adamantan-1-ylmethyl) (methyl)amino)methyl)phenyl)-N-hydroxyacrylamide illustrate brain uptake and self-blocking, as shown in FIG. 1A. Whole-brain tracer uptake levels, normalized to uptake at 10 min, were altered by 10-40% in self-blocking experiments with 5 min pretreatment with 1.0 μg-2.0 mg/kg unlabeled (E)-3-(4-((((1r,3R,5S)-adamantan-1-ylmethyl) (methyl)amino)methyl)phenyl)-N-hydroxyacrylamide, as shown in FIGS. 1B and 1C. This quantification provides a means to measure occupancy of HDAC targets on the basis of blocked binding of the radiolabeled compound of Example 3.
Whole brain uptake of the radiotracer of Example 3 was measured 4 h after acute systemic treatment.

T1 sequence (Q13547 whole entry): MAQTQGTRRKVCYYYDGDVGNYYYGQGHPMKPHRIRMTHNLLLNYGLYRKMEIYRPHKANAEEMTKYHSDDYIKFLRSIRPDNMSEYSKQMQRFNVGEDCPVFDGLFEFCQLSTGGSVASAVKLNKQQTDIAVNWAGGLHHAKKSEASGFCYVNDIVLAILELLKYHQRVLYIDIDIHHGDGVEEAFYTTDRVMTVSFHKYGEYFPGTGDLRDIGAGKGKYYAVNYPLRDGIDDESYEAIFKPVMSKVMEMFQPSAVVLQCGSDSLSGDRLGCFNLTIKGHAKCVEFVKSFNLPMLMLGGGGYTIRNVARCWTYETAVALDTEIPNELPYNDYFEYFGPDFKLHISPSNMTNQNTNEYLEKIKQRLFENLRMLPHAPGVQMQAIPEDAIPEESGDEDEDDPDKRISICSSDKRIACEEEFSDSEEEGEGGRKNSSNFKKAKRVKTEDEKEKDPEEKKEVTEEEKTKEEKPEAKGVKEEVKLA
T2 sequence (Q92769 whole entry): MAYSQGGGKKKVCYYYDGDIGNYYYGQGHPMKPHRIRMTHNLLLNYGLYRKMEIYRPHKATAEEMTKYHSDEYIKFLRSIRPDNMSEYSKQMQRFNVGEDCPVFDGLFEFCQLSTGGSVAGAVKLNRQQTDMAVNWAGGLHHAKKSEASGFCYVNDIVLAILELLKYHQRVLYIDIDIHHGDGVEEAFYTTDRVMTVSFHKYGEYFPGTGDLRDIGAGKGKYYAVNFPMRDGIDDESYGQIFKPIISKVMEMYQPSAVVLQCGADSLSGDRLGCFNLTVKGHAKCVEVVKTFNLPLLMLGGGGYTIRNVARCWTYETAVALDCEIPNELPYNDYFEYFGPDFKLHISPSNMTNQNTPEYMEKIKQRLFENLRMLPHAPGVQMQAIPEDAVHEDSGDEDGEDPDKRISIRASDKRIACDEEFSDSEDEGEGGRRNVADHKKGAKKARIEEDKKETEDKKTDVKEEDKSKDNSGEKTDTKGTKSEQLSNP
T5 sequence (Q9UQL6 whole entry): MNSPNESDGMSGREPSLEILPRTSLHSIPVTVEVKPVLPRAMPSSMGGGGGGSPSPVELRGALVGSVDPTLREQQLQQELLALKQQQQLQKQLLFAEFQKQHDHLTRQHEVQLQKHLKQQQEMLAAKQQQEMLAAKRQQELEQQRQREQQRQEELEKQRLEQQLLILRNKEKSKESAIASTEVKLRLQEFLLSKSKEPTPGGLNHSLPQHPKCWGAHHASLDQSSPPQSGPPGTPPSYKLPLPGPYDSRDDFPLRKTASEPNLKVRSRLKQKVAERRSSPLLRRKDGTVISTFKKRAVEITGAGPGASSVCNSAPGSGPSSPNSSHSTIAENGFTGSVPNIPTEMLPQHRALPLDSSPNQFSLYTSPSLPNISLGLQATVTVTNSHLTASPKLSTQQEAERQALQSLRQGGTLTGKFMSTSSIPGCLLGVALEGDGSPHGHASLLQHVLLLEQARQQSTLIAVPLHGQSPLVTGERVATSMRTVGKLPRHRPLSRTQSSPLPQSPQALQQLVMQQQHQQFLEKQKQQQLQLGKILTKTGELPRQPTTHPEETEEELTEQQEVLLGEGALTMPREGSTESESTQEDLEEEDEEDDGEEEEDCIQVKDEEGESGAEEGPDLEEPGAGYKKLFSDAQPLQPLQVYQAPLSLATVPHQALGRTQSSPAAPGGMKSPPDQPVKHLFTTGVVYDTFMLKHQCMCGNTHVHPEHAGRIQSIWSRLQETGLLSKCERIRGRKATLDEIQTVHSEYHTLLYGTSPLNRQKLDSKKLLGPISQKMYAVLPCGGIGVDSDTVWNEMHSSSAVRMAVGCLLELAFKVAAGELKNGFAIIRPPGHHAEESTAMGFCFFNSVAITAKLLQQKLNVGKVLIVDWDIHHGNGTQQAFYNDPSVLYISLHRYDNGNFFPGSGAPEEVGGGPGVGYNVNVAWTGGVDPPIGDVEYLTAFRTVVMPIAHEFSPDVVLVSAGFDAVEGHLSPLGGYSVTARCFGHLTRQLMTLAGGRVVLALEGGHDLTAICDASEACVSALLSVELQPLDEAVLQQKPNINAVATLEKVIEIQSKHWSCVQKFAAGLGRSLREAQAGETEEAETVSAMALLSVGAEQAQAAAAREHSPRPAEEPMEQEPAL
T3 sequence (O15379 whole entry): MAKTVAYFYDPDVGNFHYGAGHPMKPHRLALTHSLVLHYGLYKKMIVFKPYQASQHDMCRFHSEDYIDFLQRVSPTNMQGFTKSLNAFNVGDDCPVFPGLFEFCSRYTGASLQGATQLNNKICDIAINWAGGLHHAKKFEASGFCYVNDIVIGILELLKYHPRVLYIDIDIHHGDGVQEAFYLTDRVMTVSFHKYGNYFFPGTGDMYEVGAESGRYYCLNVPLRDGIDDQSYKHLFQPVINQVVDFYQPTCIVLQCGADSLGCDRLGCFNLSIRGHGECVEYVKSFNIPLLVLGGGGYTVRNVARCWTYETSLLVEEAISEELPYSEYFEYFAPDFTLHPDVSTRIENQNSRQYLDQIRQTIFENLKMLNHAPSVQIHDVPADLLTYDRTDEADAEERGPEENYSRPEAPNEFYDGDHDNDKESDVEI
T3 sequence (Q9Y618 395-489 partner limits assumed): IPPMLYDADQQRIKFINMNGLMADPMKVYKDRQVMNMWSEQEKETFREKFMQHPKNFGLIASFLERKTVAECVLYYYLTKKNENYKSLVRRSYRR
T9 sequence (Q9UKV0 whole entry): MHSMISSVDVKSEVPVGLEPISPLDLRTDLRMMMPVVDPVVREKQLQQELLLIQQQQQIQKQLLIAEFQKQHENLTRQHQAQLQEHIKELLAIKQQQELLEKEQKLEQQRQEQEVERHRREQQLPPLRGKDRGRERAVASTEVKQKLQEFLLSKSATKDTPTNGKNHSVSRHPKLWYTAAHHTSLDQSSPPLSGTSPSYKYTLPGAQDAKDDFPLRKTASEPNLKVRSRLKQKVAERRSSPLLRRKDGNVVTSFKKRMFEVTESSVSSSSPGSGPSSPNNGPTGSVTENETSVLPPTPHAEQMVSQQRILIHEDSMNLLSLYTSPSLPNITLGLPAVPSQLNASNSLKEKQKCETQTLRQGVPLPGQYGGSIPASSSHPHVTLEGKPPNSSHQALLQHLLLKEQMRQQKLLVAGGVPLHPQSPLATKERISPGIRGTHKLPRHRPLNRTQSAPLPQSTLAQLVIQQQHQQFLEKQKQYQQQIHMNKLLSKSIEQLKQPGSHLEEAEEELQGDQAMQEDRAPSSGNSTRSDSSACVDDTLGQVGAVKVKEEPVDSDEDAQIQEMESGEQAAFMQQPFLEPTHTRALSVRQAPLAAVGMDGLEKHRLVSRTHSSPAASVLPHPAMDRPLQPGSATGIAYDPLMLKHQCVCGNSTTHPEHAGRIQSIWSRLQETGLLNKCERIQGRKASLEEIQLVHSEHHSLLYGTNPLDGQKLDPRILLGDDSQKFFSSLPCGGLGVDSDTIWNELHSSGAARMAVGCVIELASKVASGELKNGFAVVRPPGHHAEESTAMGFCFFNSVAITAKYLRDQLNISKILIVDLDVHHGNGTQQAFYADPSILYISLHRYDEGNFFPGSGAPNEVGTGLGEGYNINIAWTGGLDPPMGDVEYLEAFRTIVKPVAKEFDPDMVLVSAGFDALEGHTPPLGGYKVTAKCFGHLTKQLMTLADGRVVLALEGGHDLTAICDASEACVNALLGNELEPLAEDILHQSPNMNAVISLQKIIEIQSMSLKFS
T4 sequence (P56524 whole entry): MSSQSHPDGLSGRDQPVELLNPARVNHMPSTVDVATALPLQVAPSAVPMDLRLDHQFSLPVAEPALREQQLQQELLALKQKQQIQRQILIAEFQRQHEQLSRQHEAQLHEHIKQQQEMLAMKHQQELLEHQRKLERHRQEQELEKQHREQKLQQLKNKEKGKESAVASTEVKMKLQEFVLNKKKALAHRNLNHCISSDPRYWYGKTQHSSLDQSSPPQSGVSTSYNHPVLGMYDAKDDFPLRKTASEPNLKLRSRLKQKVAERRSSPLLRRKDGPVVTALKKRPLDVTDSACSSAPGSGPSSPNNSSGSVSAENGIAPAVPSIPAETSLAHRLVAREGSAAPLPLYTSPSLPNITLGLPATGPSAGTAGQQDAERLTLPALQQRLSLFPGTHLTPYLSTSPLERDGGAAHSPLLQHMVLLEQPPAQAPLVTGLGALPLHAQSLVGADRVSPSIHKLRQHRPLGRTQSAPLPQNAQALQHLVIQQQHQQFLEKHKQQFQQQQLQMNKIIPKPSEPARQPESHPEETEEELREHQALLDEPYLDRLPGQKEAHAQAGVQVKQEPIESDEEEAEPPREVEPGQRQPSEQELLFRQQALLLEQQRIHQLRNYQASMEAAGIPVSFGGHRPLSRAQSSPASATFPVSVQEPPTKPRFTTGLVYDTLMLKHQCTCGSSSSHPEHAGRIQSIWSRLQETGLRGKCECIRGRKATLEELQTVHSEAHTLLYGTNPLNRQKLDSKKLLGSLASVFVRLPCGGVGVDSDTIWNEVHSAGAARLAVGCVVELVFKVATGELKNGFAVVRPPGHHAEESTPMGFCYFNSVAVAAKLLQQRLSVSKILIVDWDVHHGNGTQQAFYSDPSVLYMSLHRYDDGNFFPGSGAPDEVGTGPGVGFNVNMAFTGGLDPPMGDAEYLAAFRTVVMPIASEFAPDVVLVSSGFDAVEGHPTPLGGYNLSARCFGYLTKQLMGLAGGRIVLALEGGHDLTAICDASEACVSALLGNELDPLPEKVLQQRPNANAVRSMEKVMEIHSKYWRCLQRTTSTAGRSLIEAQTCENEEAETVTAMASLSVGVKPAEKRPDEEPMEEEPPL

## O=C(/C=C/c1ccc(CNCC23CC4CC(CC(C4)C2)C3)c(F)c1)NO
HDAC1
  IC50: 0.0008 µM
HDAC2
  IC50: 0.0064 µM
HDAC3
  IC50: 0.0005 µM
HDAC4
  IC50: > 70 µM
HDAC5
  IC50: 4.31 µM
HDAC6
  IC50: > 40 µM
HDAC7
  IC50: > 70 µM
HDAC8
  IC50: > 5 µM
HDAC9
  IC50: > 50 µM

## CN(Cc1ccc(/C=C/C(=O)NO)cc1)CC12CC3CC(CC(C3)C1)C2 [Example 1, (E)-3-(4-((((1r,3R,5S)-adamantan-1-ylmethyl)(methyl)amino)methyl)phenyl)-N-hydroxyacrylamide]
HDAC
  Whole-brain tracer uptake levels, normalized to uptake at 10 min, altered by: 10-40%

## O=C(/C=C/c1ccc(CN(CCF)CC23CC4CC(CC(C4)C2)C3)cc1)NO
HDAC1
  IC50: 0.222 µM
HDAC2
  IC50: 0.651 µM
HDAC3
  IC50: 0.47 µM
HDAC4
  IC50: > 12 µM
HDAC5
  IC50: > 5 µM
HDAC6
  IC50: 0.308 µM
HDAC7
  IC50: > 30 µM
HDAC8
  IC50: > 30 µM
HDAC9
  IC50: > 30 µM

## CN(Cc1ccc(/C=C/C(=O)Nc2ccccc2N)cc1)CC12CC3CC(CC(C3)C1)C2 [drawing 61]
HDAC1
  IC50: 0.149 µM
HDAC2
  IC50: 0.602 µM
HDAC3
  IC50: 0.216 µM
HDAC5
  IC50: > 40 µM
HDAC6
  IC50: > 10 µM
HDAC7
  IC50: > 40 µM
HDAC8
  IC50: > 40 µM

Reference: patent US20170349540A1, “HISTONE DEACETYLASE INHIBITORS” (The General Hospital Corporation, priority 2014, published 2017)
